Measurements published in the supplement of paper PMC10307832.

What was measured:
Experiment in all cases: relative viability (nuclei count vs DMSO), 5 days (fraction); higher = more cells survive
[1] = compound: CS(=O)(=O)c1ccc(C(=O)Nc2ccc(Cl)c(-c3ccccn3)c2)c(Cl)c1 [Vismodegib] + CC(=O)Nc1cccc(-n2c(=O)n(C3CC3)c(=O)c3c(Nc4ccc(I)cc4F)n(C)c(=O)c(C)c32)c1 [Trametinib] (partner 0.02 µM)
How it was run: (§1)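 Relative viability divides the nuclei count in treated wells by that in vehicle wells. Lung cancer cell lines were seeded in 1536-well plates, dosed by pin tool the next day, and fixed and stained after 5 days in one step with final 0.05% Triton X-100, 1% formaldehyde and 1 ug/ml Hoechst. Dosing was a single drug or a fixed anchor-drug dose plus five library-drug doses (not always all listed) in √10 steps, and values are medians of duplicate plates imaged at 4×.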

[2] = compound: CS(=O)(=O)c1ccc(-c2cnc(N)c(C(=O)Nc3ccccc3)n2)cc1 [VE-821] + CC(=O)c1c(C)c2cnc(Nc3ccc(N4CCNCC4)cn3)nc2n(C2CCCC2)c1=O [Palbociclib] (partner 0.5 µM)
How it was run: as §1

[3] = compound: N#CC[C@H](C1CCCC1)n1cc(-c2ncnc3[nH]ccc23)cn1 [Ruxolitinib] + CCNC(=O)c1noc(-c2cc(C(C)C)c(O)cc2O)c1-c1ccc(CN2CCOCC2)cc1 [Luminespib] (partner 0.01 µM)
How it was run: as §1

[4] = compound: CS(=O)(=O)c1ccc(C(=O)Nc2ccc(Cl)c(-c3ccccn3)c2)c(Cl)c1 [Vismodegib] + Cc1nc(NC(=O)N2CCC[C@H]2C(N)=O)sc1-c1ccnc(C(C)(C)C(F)(F)F)c1 [Alpelisib] (partner 2 µM)
How it was run: as §1

Cell Line | relative viability ([1]; first compound 0.08 µM) | relative viability ([1]; first compound 0.253 µM) | relative viability ([1]; first compound 0.8 µM) | relative viability ([1]; first compound 2.53 µM) | relative viability ([1]; first compound 8 µM) | relative viability ([2]; first compound 0.08 µM) | relative viability ([2]; first compound 0.253 µM) | relative viability ([2]; first compound 0.8 µM) | relative viability ([2]; first compound 2.53 µM) | relative viability ([2]; first compound 8 µM) | relative viability ([3]; first compound 0.08 µM) | relative viability ([3]; first compound 0.253 µM) | relative viability ([3]; first compound 0.8 µM) | relative viability ([3]; first compound 2.53 µM) | relative viability ([3]; first compound 8 µM) | relative viability ([4]; first compound 0.08 µM) | relative viability ([4]; first compound 0.253 µM) | relative viability ([4]; first compound 0.8 µM) | relative viability ([4]; first compound 2.53 µM) | relative viability ([4]; first compound 8 µM)
NCI-H2342 | 1.02 | 0.738 | 0.843 | 0.764 | 0.728 | 0.503 | 0.557 | 0.528 | 0.521 | 0.494 | 0.748 | 0.79 | 0.863 | 0.788 | 0.728 | – | – | – | – | –
LK-2 | 0.645 | 0.726 | 0.628 | 0.831 | 0.615 | 0.762 | 0.737 | 0.781 | 0.563 | 0.639 | 0.184 | 0.157 | 0.187 | 0.203 | 0.168 | 1.24 | 1.04 | 0.805 | 0.952 | 1.22
NCI-H1993 | 0.508 | 0.607 | 0.549 | 0.438 | 0.492 | 0.673 | 0.619 | 0.561 | 0.635 | 0.537 | 0.758 | 0.784 | 0.863 | 0.508 | 0.803 | 0.684 | 0.655 | 0.713 | 0.687 | 0.629
ChaGo-K-1 | 0.849 | 0.904 | 0.919 | 0.781 | 0.796 | 0.95 | 0.956 | 0.909 | 0.905 | 0.803 | 0.635 | 0.655 | 0.605 | 0.492 | 0.517 | – | – | – | – | –
NCI-H1299 | – | – | – | – | – | – | – | – | – | – | – | – | – | – | – | 0.984 | 1.04 | 1.06 | 0.973 | 1.04
ABC-1 | – | – | – | – | – | 0.651 | 0.788 | 0.601 | 0.695 | 0.633 | – | 0.736 | 0.987 | 0.509 | 0.437 | 0.994 | 1.13 | 1.08 | 0.83 | 0.949
NCI-H1703 | – | – | – | – | – | – | – | – | – | – | – | – | – | – | – | 0.315 | 0.311 | 0.407 | 0.306 | 0.422
HCC-78 | 0.826 | 0.768 | 0.598 | 0.743 | 0.739 | 0.491 | 0.453 | 0.482 | 0.489 | 0.461 | – | – | – | – | – | 0.369 | 0.346 | 0.267 | 0.359 | 0.362
NCI-H522 | 0.797 | 0.763 | 0.639 | 0.609 | 0.669 | 1.06 | 1.15 | 0.754 | 0.932 | 0.999 | 1.14 | 1.81 | 1.25 | 0.884 | 1.64 | – | – | – | – | –
NCI-H1650 | 0.621 | 0.522 | 0.643 | 0.606 | 0.666 | 0.342 | 0.324 | 0.329 | 0.4 | 0.336 | – | 0.196 | 0.198 | 0.214 | 0.197 | – | – | – | – | –
HCC-366 | 0.348 | 0.292 | 0.334 | 0.37 | 0.343 | 0.668 | 0.378 | 0.303 | 0.0939 | 0.0558 | – | – | – | – | – | 0.436 | 0.467 | 0.362 | 0.402 | 0.556
SW 900 | 0.801 | 0.73 | 1.1 | – | 0.921 | 0.549 | 0.52 | 0.46 | 0.542 | 0.36 | 0.175 | 0.181 | 0.181 | 0.154 | 0.193 | – | – | – | – | –
